# Reference: patent US20220071925A1, “MEDICINAL COMPOSITION FOR PREVENTING OR TREATING BONE DISEASES” (GEXVAL INC., priority 2019, published 2022)
# How the values were obtained:
# [1] = target: GPR40 (Homo sapiens, UniProt O14842); conditions: cited from earlier work
# [2] = tested on: R264.7 cells; assay: Combined effect of compounds on LPS-stimulated mouse macrophage-derived cells, gene expression by RNA sequencing (Test Example 2); format: cell-based; conditions: LPS 100 ng/mL 24 h, free fatty acid (stearic acid) 10 μM, Fasiglifam 10 μM, alone or in combination
# Description: The combined effect of the compounds on the change when macrophage cells were stimulated by lipopolysaccharide (LPS) derived from bacteria was examined by integrated gene expression analysis using RNA next-generation sequencing. […].7 cells purchased from KAC Co., Ltd. were used in the test. The cells were suspended in DMEM with 10% serum, seeded in a 24-well plate at a concentration of 1.6×10^5 cells/well, and cultured at 37° C. under a 5% CO2 condition. 30 minutes prior to addition of LPS, a free fatty acid at 10 μM and Fasiglifam at 10 μM were added alone or in combination. Stearic acid was used as the free fatty acid. After culturing for 30 minutes after addition of the compound, LPS was added to each well at a concentration of 100 ng/mL. PBS of the same amount as LPS was added to a non-stimulated control group. After culturing for 24 hours with the addition of LPS, the medium was removed, and total RNA was extracted using RNeasy (QIAGEN). mRNA was recovered from the total RNA to prepare a library, and RNA sequencing (Illumina Hiseq) was performed. Samples from the following five groups were sequenced, and the expression level of each gene was estimated from the obtained read count data. […] Further, these expression-fluctuated genes were subjected to a pathway analysis to examine their association with the disease.
# [3] = tested on: osteoclasts; conditions: caused by interaction of osteoclasts (RANK) with osteoblasts (RANKL); cited from earlier work
# [4] = in vivo; cited from earlier work
# [5] = tested on: osteoclasts; conditions: action of GW9508 on GPR40; cited from earlier work
# Chain of GPR40 (O14842 whole entry, species assumed): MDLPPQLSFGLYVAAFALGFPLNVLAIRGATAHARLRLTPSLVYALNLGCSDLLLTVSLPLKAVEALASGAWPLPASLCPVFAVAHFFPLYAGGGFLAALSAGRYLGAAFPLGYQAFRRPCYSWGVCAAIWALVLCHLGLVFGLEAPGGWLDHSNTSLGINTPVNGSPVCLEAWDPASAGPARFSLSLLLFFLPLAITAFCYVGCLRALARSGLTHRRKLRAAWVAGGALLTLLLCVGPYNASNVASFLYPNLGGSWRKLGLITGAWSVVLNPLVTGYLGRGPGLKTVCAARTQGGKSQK
smiles,measurement,setting,value
"Cc1cc(OCCCS(C)(=O)=O)cc(C)c1-c1cccc(COc2ccc3c(c2)OC[C@H]3CC(=O)O)c1 [Fasiglifam, [(3S)-6-({2′,6′-dimethyl-4′-[3-(methylsulfonyl)propoxy]biphenyl-3-yl}methoxy)-2,3-dihydro-1-benzofuran-3-yl]acetic acid]",agonist selectivity GPR40 versus GPR120,[1],selective agonist for GPR40
same,AAAS expression level,[2],0
same,BCL2L1 expression level,[2],0
same,C3AR1 expression level,[2],0
same,CCL2 expression level,[2],0
same,CCL3 expression level,[2],0
same,CCL4 expression level,[2],0
same,CD36 expression level,[2],0
same,CSF1R expression level,[2],0
same,CSF3 expression level,[2],0
same,DUSP5 expression level,[2],0
same,EIF4B expression level,[2],0
same,EIF4G2 expression level,[2],0
same,GBP7 expression level,[2],0
same,GRIN1 expression level,[2],0
same,IL7R expression level,[2],0
same,IP6K2 expression level,[2],0
same,LYN expression level,[2],0
same,NF1 expression level,[2],0
same,NOS2 expression level,[2],0
same,PIK3CD expression level,[2],0
same,PIM1 expression level,[2],0
same,PIP5K1C expression level,[2],0
same,PLAUR expression level,[2],0
same,PLEKHO2 expression level,[2],0
same,PPP2CA expression level,[2],0
same,PSMA6 expression level,[2],0
same,PSMA7 expression level,[2],0
same,PSMC2 expression level,[2],0
same,PSMD13 expression level,[2],0
same,PYGB expression level,[2],0
same,RASGRP3 expression level,[2],0
same,SDCBP expression level,[2],0
same,SMPD1 expression level,[2],0
same,SUMO1 expression level,[2],0
same,TNF expression level,[2],0
same,TNFRSF1B expression level,[2],0
same,TNFSF8 expression level,[2],0
same,TNRC6B expression level,[2],0
"CCCCCCCCCCCCCCCCCC(=O)O [Fatty acid, Stearic acid]",AAAS expression level,[2],0
same,BCL2L1 expression level,[2],0
same,C3AR1 expression level,[2],0
same,CCL2 expression level,[2],0
same,CCL3 expression level,[2],0
same,CCL4 expression level,[2],0
same,CD36 expression level,[2],0
same,CSF1R expression level,[2],0
same,CSF3 expression level,[2],0
same,DUSP5 expression level,[2],0
same,EIF4B expression level,[2],0
same,EIF4G2 expression level,[2],0
same,GBP7 expression level,[2],0
same,GRIN1 expression level,[2],0
same,IL7R expression level,[2],0
same,IP6K2 expression level,[2],0
same,LYN expression level,[2],0
same,NF1 expression level,[2],0
same,NOS2 expression level,[2],0
same,PIK3CD expression level,[2],0
same,PIM1 expression level,[2],0
same,PIP5K1C expression level,[2],0
same,PLAUR expression level,[2],0
same,PLEKHO2 expression level,[2],0
same,PPP2CA expression level,[2],0
same,PSMA6 expression level,[2],0
same,PSMA7 expression level,[2],0
same,PSMC2 expression level,[2],0
same,PSMD13 expression level,[2],0
same,PYGB expression level,[2],0
same,RASGRP3 expression level,[2],0
same,SDCBP expression level,[2],0
same,SMPD1 expression level,[2],0
same,SUMO1 expression level,[2],0
same,TNF expression level,[2],0
same,TNFRSF1B expression level,[2],0
same,TNFSF8 expression level,[2],0
same,TNRC6B expression level,[2],0
O=C(O)CCc1ccc(NCc2cccc(Oc3ccccc3)c2)cc1 [GW9508],formation of osteoclasts (differentiation and maturation into osteoclasts),[3],suppressing the formation of osteoclasts
same,bone loss due to ovariectomy,[4],bone loss due to ovariectomy can be prevented
same,agonist selectivity GPR40 versus GPR120,[1],dual agonist for GPR40 and GPR120
same,differentiation into osteoclasts,[5],the differentiation into osteoclasts is suppressed
